Assay [1] addresses T1, RORγ ligand binding domain (LBD) (Homo sapiens, UniProt P51449).
T1 construct: made in house; host or cells: E. coli BL-21 (BL3), vector pDEST15
T1 sequence (P51449 269-508 limits assumed): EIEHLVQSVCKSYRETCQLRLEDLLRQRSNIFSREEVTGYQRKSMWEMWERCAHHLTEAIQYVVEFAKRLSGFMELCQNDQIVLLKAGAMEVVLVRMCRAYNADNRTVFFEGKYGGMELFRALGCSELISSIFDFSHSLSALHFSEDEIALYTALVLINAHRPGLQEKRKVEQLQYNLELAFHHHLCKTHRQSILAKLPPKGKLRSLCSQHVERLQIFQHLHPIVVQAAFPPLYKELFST
Nature of the assay: TR-FRET Activity Assay (ligand sensing, RORγ-LBD / coactivator peptide interaction, LANCE). The format is biochemical.

A further assay addresses T2, RORγ (UniProt P51449).
T2 sequence (P51449 1-518): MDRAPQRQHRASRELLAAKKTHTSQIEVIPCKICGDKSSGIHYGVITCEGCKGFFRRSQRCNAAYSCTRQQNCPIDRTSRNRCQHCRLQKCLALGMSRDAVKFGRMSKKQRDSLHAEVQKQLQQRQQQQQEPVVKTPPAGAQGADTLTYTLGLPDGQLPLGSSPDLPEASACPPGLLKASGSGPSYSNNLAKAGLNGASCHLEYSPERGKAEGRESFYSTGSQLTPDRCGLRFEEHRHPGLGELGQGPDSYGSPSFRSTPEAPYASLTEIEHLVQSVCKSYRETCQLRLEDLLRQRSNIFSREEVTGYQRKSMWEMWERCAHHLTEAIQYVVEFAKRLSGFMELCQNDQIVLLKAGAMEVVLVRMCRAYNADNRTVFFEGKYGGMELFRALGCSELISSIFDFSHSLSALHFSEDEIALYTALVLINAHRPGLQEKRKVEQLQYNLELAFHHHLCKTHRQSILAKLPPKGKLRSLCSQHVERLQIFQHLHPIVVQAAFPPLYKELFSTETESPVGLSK
In words: RORγ Gal4 Reporter Gene Assay in 293T cells (firefly and renilla luciferase). The format is cell-based, human.

Where [2] appears, read: first value of the cell FRET/FF/REN, TR-FRET activity assay, read-out: pIC50 (FRET) (converted).
Where [3] appears, read: second value of the cell, Gal4 reporter gene assay in 293T cells, firefly luciferase.
Setting [4] is: third value of the cell, Gal4 reporter gene assay in 293T cells, renilla normalised luciferase.

Here are results for 16 molecules from patent publication US9815851B2, “Pyrrolo carboxamides as modulators of orphan nuclear receptor RAR-related orphan receptor-gamma (RORγ, NR1F3) activity and for the treatment of chronic inflammatory and autoimmune diseases” (PHENEX PHARMACEUTICALS AG, priority 2011, dated 2017).

Like-named read-outs stand apart in the source and are kept apart here.

Consider `Cc1c(C(=O)NCC(C)(C)CC(=O)O)cc(-c2ccc(S(=O)(=O)NC(C)(C)C)c(C(F)(F)F)c2)n1CC1CCCCC1` [17/134], for which, in assay [1] (setting [2]), the IC50 was 398 nM. The “pIC50 (FF)” value against RORγ (setting [3]) was 7.4. Besides, the “pIC50 (REN)” value against RORγ (setting [4]) was 7.7.
As for `COC(C)(C)c1cc(-c2cc(C(=O)NC3CCOCC3)c(C)n2CC2CCCCC2)cc(C(C)NC(C)C)c1` (stereo not drawn) [17/303], the IC50 in assay [1] (setting [2]) is 3980 nM. On RORγ (setting [3]), the “pIC50 (FF)” value came to 6.3. Further, the “pIC50 (REN)” value against RORγ (setting [4]) came to 6.4.
As to `Cc1c(C(=O)NCC(C)(C)O)cc(-c2cc(C(=O)NC(C)C)cc(C3(C)CC3)c2)n1CC1CCCCC1` [1/112], the IC50 in assay [1] (setting [2]) is 501 nM. In addition, the “pIC50 (FF)” value against RORγ (setting [3]) was found to be 7.1. Besides, the “pIC50 (REN)” value at RORγ (setting [4]) is listed as 7.1.
The molecule `Cc1c(C(=O)NC2(C)CCOCC2)cc(-c2ccc(S(=O)(=O)NC(C)(C)C)c(C(F)(F)F)c2)n1CC1CCCCC1` [17/209] gave an IC50 in assay [1] of 200 nM. Also, at RORγ, the “pIC50 (FF)” value is recorded as 6.7/7.3/7.6 and the “pIC50 (REN)” value is 6.7/7.3/7.6.
Consider `Cc1c(C(=O)NC2CCOCC2)cc(-c2ccc(C(=O)NC3CCCCC3)c(C(F)(F)F)c2)n1CC1CCCCC1` [6/9], for which the IC50 in assay [1] (setting [2]) was 10000 nM. Moreover, the “pIC50 (FF)” value on RORγ (setting [3]) amounted to 6.4. The “pIC50 (REN)” value on RORγ (setting [4]) stood at 6.2.
The matching figures for `Cc1c(C(=O)NC2CCOCC2)cc(-c2ccc(S(=O)(=O)NC(C)(C)C)c(C(F)(F)F)c2)n1[C@H](C)C1CCCCC1` [17/254]: 631 nM, 6.6 and 6.6.
The matching figures for `Cc1c(C(=O)NCC2(C(=O)O)CCOCC2)cc(-c2cc(C(C)(C)C)cc(C3(C)CC3)c2)n1CC1CCCCC1` [17/61]: 1000 nM, 7.4 and 7.5.
The matching figures for `Cc1c(C(=O)NC2CNC(=O)C23CCOCC3)cc(-c2ccc(S(=O)(=O)NC(C)(C)C)c(C(F)(F)F)c2)n1CC1CCCCC1` (stereo not drawn) [17/295]: 1000 nM, 6.6 and 6.5.
With `Cc1c(C(=O)NC2CCS(=O)(=O)CC2)cc(-c2ccc(S(=O)(=O)NC(C)(C)C)c3ccccc23)n1CC1CCCCC1` [17/263], the IC50 in assay [1] (setting [2]) is 316 nM. Also, at RORγ (setting [3]), the “pIC50 (FF)” value is 7.9. In addition, at RORγ (setting [4]), the “pIC50 (REN)” value amounted to 8.0.
The matching figures for `Cc1c(C(=O)NC2CCOCC2)cc(-c2ccc(S(=O)(=O)N[C@H](C)C(F)(F)F)c(C(F)(F)F)c2)n1CC1CCCCC1` [17/142]: 398 nM, 7.4 and 7.6.
The corresponding values for `Cc1c(C(=O)NC2CCOCC2)cc(-c2ccc(S(=O)(=O)NC(C)(C)C)c(C(F)(F)F)c2)n1CC1CCCCC1` [17/97] are 126 nM, 8.0 and 8.0.
The matching figures for `CC(C)(C)c1cc(-c2cc(C(=O)N[C@H]3C[C@H](C(=O)O)C3)c(F)n2CC2CCCCC2)cc(C2(C)CC2)c1` [20/3]: 631 nM, 7.3 and 7.4.
In the case of `Cc1c(C(=O)NCCOCCO)cc(-c2cc(C(C)(C)C)cc(C(C)(C)C)c2)n1CC1CCCCC1` [1/63], the IC50 in assay [1] was 631 nM. Besides, on RORγ, the “pIC50 (FF)” value is on record as 6.2/6.7/6.7 and the “pIC50 (REN)” value is given as 6.2/6.7/6.7.
`Cc1c(C(=O)NCC(C)(C)NC(=O)C(C)O)cc(-c2cc(C(C)(C)C)c3c(c2)C2(CCO3)CC2)n1CC1CCCCC1` (stereo not drawn) [17/123] showed an IC50 in assay [1] of 3160 nM. For the same molecule, at RORγ, the “pIC50 (FF)” value was 5.5/7.0/7.0 and the “pIC50 (REN)” value was 5.5/7.0/7.0.
For the molecule `Cc1c(C(=O)NC2COC2)cc(-c2cc(C(C)(C)C)cc(C(C)(C)C)c2)n1CC1CCCC(C)C1` (stereo not drawn) [1/119], in assay [1], the IC50 was 200 nM. For the same molecule, on RORγ, the “pIC50 (FF)” value is 6.7/7.4/7.3 and the “pIC50 (REN)” value is 6.7/7.4/7.3.
Consider `Cc1c(C(=O)NCCS(C)(=O)=O)cc(-c2cc(C(C)(C)O)cc(C3(C)CC3)c2)n1CC1CCCCC1` [17/317], for which, in assay [1] (setting [2]), the IC50 is 2510 nM. Besides, on RORγ (setting [3]), the “pIC50 (FF)” value is 6.5. For the same molecule, on RORγ (setting [4]), the “pIC50 (REN)” value came out at 6.5.
